The text below walks through data of PMC11284788, “NN1213 – A Potent, Long-Acting, and Selective Analog of Human Amylin” (Journal of Medicinal Chemistry, 2024).

Assay [1] has as its target T1, rat AMY3R (Rattus norvegicus, UniProt P32214+Q9JJ73).
T1 construct: expressed in transfected cells; host or cells: BHK tk-ts 13, transient co-transfection (FuGENE 6)
T1 sequence (P32214 25-479 isoform P32214-2 limits assumed): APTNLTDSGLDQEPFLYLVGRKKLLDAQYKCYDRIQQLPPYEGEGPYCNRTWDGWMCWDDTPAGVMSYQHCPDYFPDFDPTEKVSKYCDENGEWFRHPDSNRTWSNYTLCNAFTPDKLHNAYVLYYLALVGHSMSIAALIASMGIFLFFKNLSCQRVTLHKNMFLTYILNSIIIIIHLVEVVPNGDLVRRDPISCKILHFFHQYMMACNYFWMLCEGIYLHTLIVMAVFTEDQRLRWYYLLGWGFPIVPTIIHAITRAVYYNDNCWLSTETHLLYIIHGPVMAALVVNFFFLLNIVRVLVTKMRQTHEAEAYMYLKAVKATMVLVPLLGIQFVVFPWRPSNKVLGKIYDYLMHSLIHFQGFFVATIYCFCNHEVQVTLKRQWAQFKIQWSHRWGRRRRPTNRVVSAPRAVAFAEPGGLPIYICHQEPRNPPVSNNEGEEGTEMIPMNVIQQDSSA
T1 sequence (Q9JJ73 23-147 partner): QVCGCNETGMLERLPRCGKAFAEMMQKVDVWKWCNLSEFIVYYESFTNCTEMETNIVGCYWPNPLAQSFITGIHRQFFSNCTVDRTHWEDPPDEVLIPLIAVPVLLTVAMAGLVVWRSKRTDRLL
Description: cAMP FlashPlate assay, rat AMY3R. It is filed as cell-based. Conditions: for EC50 / pEC50: cAMP (rat receptor assay); for EC50: Tables S12 and S14, read-out: rAMY3R pEC50 (converted); for pEC50: transiently transfected BHK tk-ts 13 cells, FlashPlate, 30 min room temperature, 2% HSA, read-out: rAMY3R EC50; for ratio rCTR/rAMY3R: ratio of cAMP EC50 values.

Assay [2] has as its target T2, hAMY3R (Homo sapiens, UniProt O60896+P30988).
T2 sequence (P30988 25-474): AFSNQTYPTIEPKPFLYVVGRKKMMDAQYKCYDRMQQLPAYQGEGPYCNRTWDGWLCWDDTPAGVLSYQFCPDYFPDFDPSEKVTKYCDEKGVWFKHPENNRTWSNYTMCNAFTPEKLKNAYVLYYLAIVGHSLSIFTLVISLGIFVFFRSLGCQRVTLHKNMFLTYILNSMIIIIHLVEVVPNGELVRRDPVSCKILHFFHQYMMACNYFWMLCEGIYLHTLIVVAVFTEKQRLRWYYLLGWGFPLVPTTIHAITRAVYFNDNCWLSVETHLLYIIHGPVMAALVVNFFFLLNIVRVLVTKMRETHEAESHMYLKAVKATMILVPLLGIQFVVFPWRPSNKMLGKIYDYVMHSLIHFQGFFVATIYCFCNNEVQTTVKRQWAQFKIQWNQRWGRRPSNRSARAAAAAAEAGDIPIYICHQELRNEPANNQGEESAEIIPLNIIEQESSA
T2 sequence (O60896 24-148 partner): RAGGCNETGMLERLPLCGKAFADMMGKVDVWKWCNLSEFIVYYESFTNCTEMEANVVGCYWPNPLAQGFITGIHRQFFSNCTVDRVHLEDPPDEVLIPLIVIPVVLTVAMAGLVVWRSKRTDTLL
Description: scintillation proximity binding assay, hAMY3R membranes. Also noted: expressed in transfected cells; host or cells: BHK tk-ts 13, transient co-transfection; membranes for the SPA, whole cells for the species-specific assays. Conditions: for IC50: SPA binding assay, Tables S13 and S15, read-out: hAMY3R pIC50 (converted); for pIC50: SPA, BHK cell membranes, 125I-rat amylin, 120 min 25 °C, read-out: hAMY3R IC50; for ratio hCTR/hAMY3R: ratio of binding IC50 values. On the technique in general: In a scintillation proximity assay essentially only radioactivity close to the scintillant gives light.

The target in assay [3] is T3, hCTR (Homo sapiens, UniProt P30988).
T3 sequence (P30988 25-474): T2 sequence (P30988 25-474)
Description: cAMP-responsive element luciferase reporter assay, human CTR. It is filed as cell-based. The following applies: luciferase (human receptor assay); for EC50: read-out: hCTR pEC50 (converted); for pEC50: BHK cells stably expressing hCTR and CRE-luciferase, 3 h, 37 °C, 10% FBS, read-out: hCTR EC50. (In general: A reporter such as luciferase makes a cellular process visible.)

For assay [4], the target named is T4, rCTR (Rattus norvegicus, UniProt P32214).
T4 construct: expressed in transfected cells; host or cells: BHK tk-ts 13, transient (FuGENE 6)
T4 sequence (P32214 25-479 isoform P32214-2 limits assumed): T1 sequence (P32214 25-479 isoform P32214-2 limits assumed)
As to the kind of experiment: scintillation proximity binding assay, rCTR membranes. Conditions: for IC50: SPA binding assay, Tables S13 and S15, read-out: rCTR pIC50 (converted); for pIC50: SPA, BHK cell membranes, 125I-Calcitonin 75 pM, 120 min 25 °C, read-out: rCTR IC50. As for the experimental part: The apparent binding affinities were determined using a scintillation proximity assay with beads from PerkinElmer and cell membranes containing the AMY3R or CTRs. […] Membranes were harvested and membranes were prepared and kept at −80 °C until use. The assay was performed in a 384-well Optiplate (PerkinElmer). Membranes were mixed with scintillation proximity assay beads in a 1:1 ratio. […] Samples were analyzed on a TopCounter (Packard). The IC50 values were calculated using GraphPad Prism. See Supporting Information S7: SAR Screening Assay Methods (Binding Assays (Human and Rat)) for more information.
Binding Assays (Human and Rat). Brief descriptions of the methods used to determine binding affinities for SAR analysis are described below. Curves and IC50 values were plotted and calculated in GraphPad Prism using nonlinear regression (one site binding competition analysis), with pIC50 values […]
values were used to calculate the binding affinity ratios in order to express the selectivity of compounds for the AMY3R versus the CTR.
CTR Binding Assay. The binding assay was performed using scintillation proximity assay (SPA) beads (RPNQ0001) from PerkinElmer and cell membranes containing either the hCTR or rCTR. BHK […]
Membranes were prepared in the following way: the cells were rinsed with PBS and incubated with Versene for approximately 5 min before harvesting. The cells were flushed with PBS and the cell-suspension was centrifuged for 5 min at 1000 rpm. Cells were homogenized (Ultra Turrax) in a buffer […]
containing 20 mM Na-HEPES and 0.1 mM EDTA (pH 7.4, buffer 2). The resulting pellet was re-suspended in buffer 2 and protein concentration was measured (BCA protein assay, Pierce). The homogenate was kept cold during the whole procedure. The membranes were stored at –80 °C until […]
The binding assay was performed in a 384-well Optiplate (PerkinElmer) in a total volume of 40 μL.
Membranes were mixed with SPA beads in a 1:1 ratio. […]
mg/well. Test compounds were dissolved in DMSO and further diluted in assay buffer (50 mM HEPES, pH 7.4, 1 mM CaCl2, 5 mM MgCl2, 0.1% ovalbumin, and 0.02% Tween-20).
Calcitonin (NEX422 PerkinElmer) was dissolved in assay buffer and added to the Optiplate at a final […]
prior to centrifugation (1500 rpm, 10 min). Samples were analyzed on TopCounter (Packard).

As a reminder, the pEC50 is the EC50 on a negative log10 scale, so that one unit is a factor of ten. The pIC50 is the IC50 on a negative log10 scale, so that one unit is a factor of ten.

pEC50, pIC50: −log10 of the molar value. Where two headings read alike, the source gives them in different places. Numbered stars: 1 amine (or outer) side, 2 acyl side, 3 side chain; on linkers, the order of the positions; unused ones are H or OH. Bridge positions count the residues as written; N and C are the ends. Peptide text beside a SMILES is read from it. * marks the point of attachment. C20 diacid = O=C(O)CCCCCCCCCCCCCCCCCCC(=O)*; γGlu = O=C(O)[C@H](CCC(=O)[*:2])N[*:1]

On to `CC[C@H](C)[C@H](NC(=O)[C@H](C)NC(=O)CNC(=O)[C@H](Cc1ccccc1)NC(=O)[C@H](CC(N)=O)NC(=O)[C@@H]1CCCN1C(=O)[C@H](CO)NC(=O)[C@H](CO)NC(=O)[C@H](Cc1c[nH]cn1)NC(=O)[C@H](CCCNC(=N)N)NC(=O)[C@H](CC(C)C)NC(=O)[C@H](Cc1ccccc1)NC(=O)[C@H](CC(N)=O)NC(=O)[C@H](C)NC(=O)[C@H](CC(C)C)NC(=O)[C@H](CCCNC(=N)N)NC(=O)[C@H](CCC(N)=O)NC(=O)[C@@H](NC(=O)[C@H](C)NC(=O)[C@@H]1CSSC[C@H](NC(=O)[C@H](CCCCN)NC(=O)CC[C@H](NC(=O)CCCCCCCCCCCCCCCCCCC(=O)O)C(=O)O)C(=O)N[C@@H](CC(N)=O)C(=O)N[C@@H]([C@@H](C)O)C(=O)N[C@@H](C)C(=O)N[C@@H]([C@@H](C)O)C(=O)N1)[C@@H](C)O)C(=O)N1CCC[C@H]1C(=O)N[C@@H](CO)C(=O)N[C@@H](CO)C(=O)N[C@H](C(=O)N[C@@H](CC(N)=O)C(=O)N[C@H](C(=O)NCC(=O)N[C@@H](Cc1c[nH]cn1)C(=O)N[C@@H](CC(N)=O)C(=O)N[C@H](C(=O)N[C@@H](Cc1ccc(O)cc1)C(N)=O)[C@@H](C)O)C(C)C)[C@@H](C)O` [Peptide 17], for which, in assay [1], the EC50 was 0.933 nM, the pEC50 is 9.03 and the “ratio rCTR/rAMY3R” value was found to be 18. For the same molecule, in assay [2], the IC50 was 0.479 nM, the pIC50 was 9.32 and the “ratio hCTR/hAMY3R” value is listed as 29. Further, the EC50 in assay [3] (Tables S12 and S14) is 2.51 nM. Further, the pEC50 in assay [3] is 8.60. Also, in assay [4], the IC50 is 50.1 nM and the pIC50 was 7.30.

`CC[C@H](C)[C@H](NC(=O)[C@H](C)NC(=O)CNC(=O)[C@H](Cc1ccccc1)NC(=O)[C@H](CC(N)=O)NC(=O)[C@@H]1CCCN1C(=O)[C@H](CO)NC(=O)[C@H](CO)NC(=O)[C@H](Cc1c[nH]cn1)NC(=O)[C@H](CCCNC(=N)N)NC(=O)[C@H](CC(C)C)NC(=O)[C@H](Cc1ccccc1)NC(=O)[C@H](CC(N)=O)NC(=O)[C@H](C)NC(=O)[C@H](CC(C)C)NC(=O)[C@H](CCCNC(=N)N)NC(=O)[C@H](CCC(N)=O)NC(=O)[C@@H](NC(=O)[C@H](C)NC(=O)[C@@H]1CSSC[C@H](NC(=O)[C@@H](N)CCCCNC(=O)CC[C@H](NC(=O)CCCCCCCCCCCCCCCCCCC(=O)O)C(=O)O)C(=O)N[C@@H](CC(N)=O)C(=O)N[C@@H]([C@@H](C)O)C(=O)N[C@@H](C)C(=O)N[C@@H]([C@@H](C)O)C(=O)N1)[C@@H](C)O)C(=O)N1CCC[C@H]1C(=O)N[C@@H](CO)C(=O)N[C@@H](CO)C(=O)N[C@H](C(=O)N[C@@H](CC(N)=O)C(=O)N[C@H](C(=O)NCC(=O)N[C@@H](CO)C(=O)N[C@@H](CCCCN)C(=O)N[C@H](C(=O)N[C@@H](Cc1ccc(O)cc1)C(N)=O)[C@@H](C)O)C(C)C)[C@@H](C)O` [Peptide 14]: in assay [1], the EC50 is 0.759 nM, the negative-log EC50 (pEC50) is 9.12 and the “ratio rCTR/rAMY3R” value was found to be 49. Further, in assay [2], the IC50 is 0.891 nM, the pIC50 is 9.05 and the “ratio hCTR/hAMY3R” value amounted to 48. Moreover, the “hCTR pEC50” value in assay [3] (Tables S12 and S14) came out at 8.26. In addition, in assay [4], the IC50 is 56.2 nM and the pIC50 was 7.25.

With `CC[C@H](C)[C@H](NC(=O)[C@H](C)NC(=O)CNC(=O)[C@H](Cc1ccccc1)NC(=O)[C@H](CC(N)=O)NC(=O)[C@@H]1CCCN1C(=O)[C@H](CO)NC(=O)[C@H](CO)NC(=O)[C@H](Cc1c[nH]cn1)NC(=O)[C@H](CCCNC(=N)N)NC(=O)[C@H](CC(C)C)NC(=O)[C@H](Cc1ccccc1)NC(=O)[C@H](CC(N)=O)NC(=O)[C@H](C)NC(=O)[C@H](CC(C)C)NC(=O)[C@H](CCCNC(=N)N)NC(=O)[C@H](CCC(N)=O)NC(=O)[C@@H](NC(=O)[C@H](C)NC(=O)[C@@H]1CSSC[C@H](NC(=O)[C@H](CCCCN)NC(=O)CC[C@H](NC(=O)CCCCCCCCCCCCCCCCCCC(=O)O)C(=O)O)C(=O)N[C@@H](CC(N)=O)C(=O)N[C@@H]([C@@H](C)O)C(=O)N[C@@H](C)C(=O)N[C@@H]([C@@H](C)O)C(=O)N1)[C@@H](C)O)C(=O)N1CCC[C@H]1C(=O)N[C@@H](CO)C(=O)N[C@@H](CO)C(=O)N[C@H](C(=O)N1CCC[C@H]1C(=O)N[C@H](C(=O)NCC(=O)N[C@@H](CO)C(=O)N[C@@H](CCC(=O)O)C(=O)N[C@H](C(=O)N[C@@H](Cc1ccc(O)cc1)C(N)=O)[C@@H](C)O)C(C)C)[C@@H](C)O` [Peptide 11] ({C20 diacid-γGlu}-KCNTATCATQRLANFLRHSSPNFGAIPSSTPVGSETY-NH2; disulfide 2-7), in assay [1], the EC50 was 1.29 nM, the pEC50 is 8.89 and the “ratio rCTR/rAMY3R” value came out at 13. Moreover, in assay [2], the IC50 is 0.589 nM, the pIC50 was 9.23 and the “ratio hCTR/hAMY3R” value is 20. For the same molecule, the EC50 in assay [3] (Tables S12 and S14) was 2 nM. Besides, in assay [3], the pEC50 is 8.70. In assay [4], the IC50 is 51.3 nM and the pIC50 was 7.29.
